Reference: US10875856B2, “CPAP-tubulin module” (UNIVERSITAET ZU KOELN, priority 2015, dated 2020)
Entries after “also recorded” stand apart in the source; their conditions may differ. Like-named read-outs stand apart in the source and are kept apart here.

Tests used:
CPAP-tubulin interaction = test: AlphaScreen assay of inhibition of the CPAP-tubulin interaction (normalized AlphaScreen signal; triplicate determination; TruHit kit as counter-control); assay type: binding
Excerpt: FIGS. 1 to 4, 19 and 20 show normalized AlphaScreen signal for conventional tubulin binders Vinblastin (FIG. 1), Paclitaxel (FIG. 2), Docetaxel (FIG. 3) Colchicin (FIG. 4), Bactallin III (FIG. 19) and Taxol (FIG. 20).
Most tubulin-binding agents act on spindle microtubules and thus prevent mitosis nonspecifically.
The Error bars in FIGS. 1 to 16, 19 and 20 indicate data from a triplicate determination. The TruHit Kit captures possible effects on AlphaScreen assay technology.

[1] = test system: subcutaneous human prostate tumor cell (PC3) xenografts; test: PC3 xenograft in nude mice; assay type: in vivo
Description: To evaluate the anti-tumor activity of compound (A), compound (A) was delivered to nude mice bearing subcutaneous human prostate tumor cell (PC3) xenografts. Compound (A) was administered (10 mg/kg) by oral gavage once per day and the rate of tumor growth was monitored. Compared to vehicle treated controls, it was noticed a reduction in tumor growth rate in compound-(A)-treated mice. Importantly, the anti-tumor activity of compound (A) could be observed as determined by reduced tumor volume with respect to control at day 10.
(§1) To evaluate if compound (B) has anti-tumor activity in vivo, nude mice bearing subcutaneous human prostate (PC3) and breast (MDA-MB-231) tumor xenografts were used.
(§2) In each case, two groups of mice bearing tumor volume >100 mm^3 were used. Compound (B) (10 or 20 mg, Kg-1/day) by oral gavage was delivered. At the end of treatment, we measured the total tumor volume of compound (B)-treated groups and compared with vehicle-treated controls.

cancer cells = test: 24 h EdU pulse labeling experiment; assay type: cell-based; settings: 24 h pulse labeling
[2] = test system: MDA-MB-231 cells expressing tubulin-GFP; test: live cell experiments, MDA-MB-231 tubulin-GFP; assay type: cell-based
[3] = test system: Plk-4-inducible MCF10A cells; test: tolerability and cellular toxicity in Plk-4-inducible MCF10A; assay type: cell-based, human
Excerpt: Building on Example 1, a proof-of-principle experiment was established in which lentiviral-mediated transduction of constitutive or doxycycline-inducible CPAP^F375A that cannot interact with tubulin (hereafter CPAPΔT) was introduced into non-transformed human mammary epithelial MCF10A cells. These MCF10A cells are engineered to regulate centrosome amplification via doxycycline-inducible overexpression of Polo-Like-Kinase (PLK4). Introducing CPAPΔT prematurely activated Plk4-induced extra-centrosomes in interphase to nucleate microtubules and prevented them from clustering.
Since compound (A) is a tubulin binder, its tolerability and cellular toxicity in comparison to taxol in Plk-4-inducible MCF10A was evaluated.

[4] = test system: BT549, MDA-MB-231, PC9, H1975T790M, HCC827, POP10 cells; test: cancer cell proliferation, spectrum of cancer cell lines; assay type: cell-based; settings: range over BT549, MDA-MB-231, PC9, H1975T790M
Description: (§3) To evaluate the effect of compound (A) in cancer cells, a spectrum of breast cancer-(BT549, MDA-MB-231), lung cancer-(TKI-sensitive PC9, TKI-resistant H1975^T790M or HCC827 with C-met amplification) and hepatocellular carcinoma-(POP10) cells was treated with compound (A) for 24 h.
The effects of compound (B) on a spectrum of breast cancer-(BT549, MDA-MB-231),NSCLC-(PC9, TM-resistant H1975T790M, HCC827-GR) and hepatocellular-carcinoma-(POP10)-cells were tested by treatment with compound (B) for 72 hrs.

[5] = test system: extra-centrosomes in cancer cells; test: cell-based assay of centrosome declustering activity
Description: as §3

[6] = test system: MCF10A (+Dox, extra centrosomes) and HCC827-GR cells; test: live imaging of extra-centrosome cells; assay type: cell-based, human
[7] = test system: 3D-organotypic cultures of H1975T790M, HCC827-GR and A549; test: 3D organotypic culture invasion model; assay type: cell-based
Excerpt: Further, to test whether preventing CPAP-tubulin interaction could impair cancer cell invasiveness, a three-dimensional (3D) organotypic culture model for cancer cells was adapted that recapitulates many aspects of human epithelial cancer tissue architecture.

stability = assay type: physicochemical
[8] = test system: CPAP-tubulin interaction in MCF10A cells; test: immunopurification of CPAP complexes from treated cells; assay type: cell-based, human; settings: CPAP complexes from cytoplasmic extracts of MCF10A
Description: Finally, it was tested if compound (B) could prevent CPAP-tubulin interaction in cells and simultaneously enhance the ability of CPAP to bind its interacting proteins. CPAP complexes from cytoplasmic extracts of compound (B)-treated MCF10A cells were immunopurified.

[9] = test system: two-centrosomes containing cells; test: live imaging for microtubule toxic effect; assay type: cell-based
Description: Except compound (B), neither of the tested tubulin binders could perturb CPAP-tubulin interaction, enhance PCM recruitment to interphase centrosomes and prevent extra centrosomes from clustering. […] In addition, to rule out the possible microtubule toxic effect of compound (B), live imaging experiments were performed.

[10] = test system: subcutaneous human breast (MDA-MB-231) tumor xenografts; test: MDA-MB-231 xenograft in nude mice; assay type: in vivo
Description: as §1, §2

solubility = assay type: physicochemical
[11] = test system: Cep152, PCNT and CDK5RAP2 recruitment to interphase centrosomes of MCF10A cells; test: PCM protein recruitment to interphase centrosomes (imaging, heat map intensity); assay type: cell-based, human; settings: versus vehicle
Excerpt: Mechanisms by which compound (B) activates extra centrosomes to nucleate enhanced microtubules were identified. Peri-centriolar material (PCM) recruitment to centrosomes is required for microtubule nucleation.
To test this, we estimated the amounts of Cep152, PCNT and CDK5RAP2 recruitment to interphase centrosomes of compound (B)—treated MCF10A cells.

A549 cells = test: cell proliferation with erlotinib, A549; assay type: cell-based
H827 cells = test: cell proliferation with erlotinib, H827; assay type: cell-based

In the case of `CCC(CO)Nc1ncc2cc3ccccc3nc2c1C#N` (racemic) [Racemic mixture of compounds C and C‘], the IC50 (CPAP-tubulin interaction; values given in µM) is reported as 1.39 µM.
Compound `N#Cc1c(Cl)ncc2cc3ccccc3nc12` [Compound D] has an IC50 (CPAP-tubulin interaction; values in nM) of 0.023 µM.
In the case of `N#Cc1c(NCc2ccccc2)ncc2cc3ccccc3nc12` [Compound E], the IC50 (CPAP-tubulin interaction; values given in µM) is reported as 1.21 µM.
`Nc1n[nH]c2ncc3cc4ccccc4nc3c12` [Compound F] showed an IC50 (CPAP-tubulin interaction; values given in µM) of 6.94 µM.
In the case of `N#Cc1c(Sc2ccccc2)ncc2cc3ccccc3nc12` [Compound G], the IC50 (CPAP-tubulin interaction; values in nM) is reported as 0.211 µM.
With `N#Cc1c(SCC(=O)Nc2ccccc2)ncc2cc3ccccc3nc12` [Compound I] the IC50 (CPAP-tubulin interaction; values given in µM) was 1.76 µM.
In the case of `N#Cc1c(N2CCCCCC2)ncc2cc3ccccc3nc12` [Compound J], the IC50 (CPAP-tubulin interaction; values given in µM) is reported as 6.32 µM.
`N#Cc1c(N2CCCCC2)ncc2cc3ccccc3nc12` [Compound L] gave an IC50 (CPAP-tubulin interaction; values given in µM) of 1.88 µM.
`CC(=O)O[C@H]1C(=O)[C@@]2(C)[C@H]([C@H](OC(=O)c3ccccc3)[C@]3(O)C[C@H](OC(=O)[C@H](O)[C@@H](NC(=O)c4ccccc4)c4ccccc4)C(C)=C1C3(C)C)[C@]1(OC(C)=O)CO[C@@H]1C[C@@H]2O` [Paclitaxel, reference compound] gave an IC50 (CPAP-tubulin interaction; values given in µM) of 52.6 µM.
With `CCCCNc1ncc2cc3ccccc3nc2c1C#N` [compound (A)] the “tumor growth rate versus vehicle” value ([1]; PC3, 10 mg/kg oral gavage once per day) was “reduction”, the “tumor volume with respect to control” value ([1]; PC3, 10 mg/kg oral gavage once per day, day 10) was “reduced” and the “number of cancer cells with EdU incorporation” value (cancer cells) was “reduced number”. The “mitosis and cell fate in live cells” value [2] was “prolonged mitosis with eventual apoptosis”, the “proliferation of MCF10A cells that harbor extra centrosomes” value [3] was “specifically inhibited” and the “concentration tolerated without defect in bipolar mitotic spindles” value ([3]; MCF10A cells with two centrosomes) was “up to 10 μM”. For the same compound, the IC50 ([4]; HCC827, POP10, treated 24 h) was 0.86 to 2.9 µM and the “concentration causing declustering of extra-centrosomes in interphase” value ([5]; BT549 cells, 24 h treatment) was 500 nM.
For `COc1ncc2cc3ccccc3nc2c1C#N` [compound (B), 3-Methoxybenzo[b][1,6]naphthyridine-4-carbonitrile], the “mitosis and cell fate in live imaging” value [6] was “prolonged mitosis with an apparent apoptosis”, the “prevention of actin-positive invasive protrusions from 3D spheres” value ([7]; 5 μM, H1975T790M, HCC827-GR, A549 organoids) was “sufficient to prevent” and the “cell death in organoids” value ([7]; H1975T790M organoids) was “activated caspase-positive cells”. For the same compound, the organoid growth ([7]; treated organoids) was “did not grow further from its original size”, the “stability relative to compound (A)” value (stability) was “increased” and the “CPAP-tubulin interaction in cells” value [8] was “specifically perturbs”. The “tumor growth rate versus vehicle” value ([1]; PC3, 10 or 20 mg/kg/day oral gavage) was “significant reduction”, the “tumor volume with respect to control” value ([1]; PC3, after 10 days) was “reduced” and the “body weights of treated animals” value ([1]; PC3 model, 10 or 20 mg/kg/day oral) was “did not change”. The IC50 ([4]; HCC827-GR, POP10, treated 72 hrs) was 0.86 to 2.9 µM, the “concentration not affecting microtubule dynamics, cell cycle progression or mitotic spindle assembly” value [9] was “up to 5 μM” and the “concentration not preventing formation of bipolar mitotic spindles” value [9] was “up to 8 μM”. The “tumor growth rate versus vehicle” value ([10]; MDA-MB-231, 10 or 20 mg/kg/day oral gavage) was “significant reduction”, the “tumor volume with respect to control” value ([10]; MDA-MB-231, after 31 days) was “reduced” and the “body weights of treated animals” value ([10]; MDA-MB-231 model, 10 or 20 mg/kg/day oral) was “did not change”. For the same compound, the “centrosome declustering activity (preventing extra centrosomes from clustering)” value ([5]; cancer cells) was “potent; also recorded: prevented clustering of extra centrosomes”, the “solubility relative to compound (A)” value (solubility) was “increased” and the “recruitment of PCM proteins (Cep152, PCNT, CDK5RAP2) to interphase centrosomes” value [11] was “enhanced amounts”.
For `C#Cc1cccc(Nc2ncnc3cc(OCCOC)c(OCCOC)cc23)c1` [erlotinib], the IC50 (A549 cells; A549, single agent, read-out: IC50 of cell proliferation) was 5.07 µM, the IC50 (A549 cells; Homo sapiens, A549, A549, addition of 1.5 μM compound (A), read-out: IC50 of erlotinib in combinatorial treatment) was 0.5 µM and the IC50 (A549 cells; Homo sapiens, A549, A549, single agent, read-out: IC50 of cell proliferation) was 5 µM. For the same compound, the “prevention of formation of invasive protrusions” value ([7]; 3D organotypic cultures of H1975 and A549) was “not”, the IC50 (H827 cells; H827, combined with 750 nM compound (A), read-out: IC50 of erlotinib in combinatorial treatment) was 0.03 µM and the IC50 (H827 cells; H827, single agent, read-out: IC50 of cell proliferation) was 6.9 µM. The “centrosome clustering in H827” value ([5]; H827 cells, erlotinib treatment) was “does not affect centrosome clustering”.
For `CC(=O)O[C@H]1C(=O)[C@@]2(C)[C@H]([C@H](OC(=O)c3ccccc3)[C@]3(O)C[C@H](OC(=O)[C@H](O)[C@@H](NC(=O)c4ccccc4)c4ccccc4)C(C)=C1C3(C)C)[C@]1(OC(C)=O)CO[C@@H]1C[C@@H]2O` [taxol, reference compound], the “MCF10A cell proliferation regardless of extra centrosomes” value ([3]; 100 nM) was “non-selectively prevented”, the “centrosome clustering in MCF10A” value ([3]; taxol treatment) was “did not affect centrosome clustering” and the “concentration that collapsed the spindles” value [9] was 0.03 µM.
